In patent publication US7632829B2, “Diazepan derivatives” (Hoffmann-La Roche Inc., priority 2006, dated 2009) one finds IC50 data, which are given here for 37 compounds.

The assay concerns the target T1, human chemokine receptor 2 isoform B (Homo sapiens, UniProt P41597).
T1 construct: host or cells: CHOK1-CCR2B-A5 (CHO-K1)
T1 sequence (P41597 1-360 isoform P41597-2): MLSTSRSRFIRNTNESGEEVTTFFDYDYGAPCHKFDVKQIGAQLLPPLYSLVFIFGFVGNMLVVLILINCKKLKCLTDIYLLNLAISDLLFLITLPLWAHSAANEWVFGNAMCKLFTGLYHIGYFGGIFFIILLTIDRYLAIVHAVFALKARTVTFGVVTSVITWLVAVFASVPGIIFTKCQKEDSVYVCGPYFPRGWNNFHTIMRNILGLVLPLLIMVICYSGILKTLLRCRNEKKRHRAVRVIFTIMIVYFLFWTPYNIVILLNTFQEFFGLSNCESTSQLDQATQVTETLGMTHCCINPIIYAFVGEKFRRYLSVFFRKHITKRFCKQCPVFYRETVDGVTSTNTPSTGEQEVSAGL
The assay can be described thus: Calcium mobilization assay (FLIPR, CHOK1-CCR2B-A5 cells, 20 nM MCP-1). Format: cell-based. To be noted: Ca mobilisation assay, CCR2, antagonist activity vs 20 nM MCP-1. As to the method: CHOK1-CCR2B-A5 cells (from Euroscreen) stably overexpressing the human chemokine receptor 2 isoform B were cultured in Nutrient Hams F12 medium supplemented with 5% FBS, 100 U/ml penicillin, 100 μg/ml streptomycin, 400 μg/ml G418 and 5 μg/ml puromycin.
For the assay cells were grown overnight in 384-well black clear flat bottom polystyrene plates (Costar) at 37° C. at 5% CO2. After washing with DMEM, 20 mM Hepes, 2.5 mM probenecid, 0.1% BSA (DMEM assay buffer) cells were loaded with 4 μM Fluo-4 in the same DMEM assay buffer for 2 hours at 30° C. Excess dye was removed and cells were washed with DMEM assay buffer. 384-well compound plates were prepared with DMEM assay buffer/0.5% DMSO with or without various concentrations of test compounds. Usually compounds were tested for agonist and antagonist activity.
Test compounds were added to the assay plate and agonist activity was monitored as fluorescence for 80 seconds with a FLIPR (488 nm excitation; 510-570 nm emission; Molecular Devices). After 20-30 min. of incubation at 30° C., 20 nM MCP-1 (R&D; Roche) was added and fluorescence was monitored again for 80 seconds. Increases in intracellular calcium are reported as maximum fluorescence after agonist exposure minus basal fluorescence before exposure. Antagonist activity is indicated as inhibitor concentration required for 50% inhibition of specific calcium increases.
In general terms: A change in cytosolic calcium serves as a functional read-out for many receptors and channels.

By IC50 is commonly meant the concentration that gives 50% inhibition. For the compound `O=C(/C=C/c1ccc(Cl)c(F)c1)N1CCC(=O)N(CCCN2CCC3(CC3)C(O)C2)CC1` (stereo not drawn) [Example 493, 1-[(E)-3-(4-Chloro-3-fluoro-phenyl)-acryloyl]-4-[3-((+)-4-hydroxy-6-aza-spiro[2.5]oct-6-yl)-propyl]-[1,4]diazepan-5-one], the half-inhibitory concentration (IC50) came to 15 nM.
With `COCC1CCCN(CC(O)CN2CCN(C(=O)/C=C/c3ccc(Cl)c(Cl)c3)CCC2=O)C1` (racemic) [Example 293], the half-maximal inhibitory concentration (IC50) worked out at 1120 nM.
With `O=C(/C=C/c1ccc(Cl)c(Cl)c1)N1CCC(=O)N(CC(O)CN2CCC(CO)CC2)CC1` (racemic) [Example 291, (rac)-(1-[(E)-3-(3,4-Dichloro-phenyl)-acryloyl]-4-[2-hydroxy-3-(4-hydroxymethyl-piperidin-1-yl)-propyl]-[1,4]diazepan-5-one], the IC50 was 404 nM.
`CC1(CO)CCN(CC(O)CN2CCN(C(=O)C=Cc3ccc(Cl)c(Cl)c3)CCC2=O)CC1O` (single isomer, unassigned) [Example 330]: the IC50 came out at 6 nM.
Then `O=C(/C=C/c1ccc(OCc2ccccc2)cc1)N1CCC(=O)N(CCN2CCCC2)CC1` [Example 17, 1-[(E)-3-(4-Benzyloxy-phenyl)-acryloyl]-4-(2-pyrrolidin-1-yl-ethyl)-[1,4]diazepan-5-one], with 756 nM.
Next, `CC1(O)CCCN(CCCN2CCN(C(=O)/C=C/c3ccc(Cl)c(Cl)c3)CCC2=O)C1` (racemic) [Example 232]: 91 nM; `O=C(/C=C/c1ccc(Cl)c(F)c1)N1CCC(=O)N(CCCCN2CCC[C@H](O)[C@@H]2CO)CC1` (racemic) [Example 419]: 250 nM.
Take `O=C(/C=C/c1ccc(Cl)c(Cl)c1)N1CCC(=O)N(CCCN2CCCCC2)CC1` [Example 4, 1-[(E)-3-(3,4-Dichloro-phenyl)-acryloyl]-4-(3-piperidin-1-yl-propyl)-[1,4]diazepan-5-one]: the IC50 was found to be 150 nM.
With `O=C(/C=C/c1ccc(Cl)c(Cl)c1)N1CCC(=O)N(C(CO)CCCN2CCCCC2)CC1` (racemic) [Example 181, (rac)-1-[(E)-3-(3,4-Dichloro-phenyl)-acryloyl]-4-(1-hydroxymethyl-4-piperidin-1-yl-butyl)-[1,4]diazepan-5-one], the 50% inhibitory concentration (IC50) amounted to 3 nM.
In the case of `CC1(CO)CCCCN1CCCN1CCN(C(=O)/C=C/c2ccc(Cl)c(Cl)c2)CCC1=O` (racemic) [Example 250], the IC50 was determined as 812 nM.
On to `O=C(/C=C/c1cccc(Cl)c1)N1CCC(=O)N(CCN2CCC(c3ccc(F)cc3)CC2)CC1` [Example 33, 1-[(E)-3-(3-Chloro-phenyl)-acryloyl]-4-[3-(4-(4-fluoro-phenyl)-piperidin-1-yl)-ethyl]-[1,4]diazepan-5-one], for which the half-inhibitory concentration (IC50) came out at 343 nM.
Regarding `N#CC1CCN(CCCN2CCN(C(=O)/C=C/c3ccc(F)c(Cl)c3)CCC2=O)CC1` [Example 199], the 50% inhibitory concentration (IC50) worked out at 1340 nM.
For `CC1(CO)CCCN(CCCN2CCN(C(=O)/C=C/c3ccc(Cl)c(Cl)c3)CCC2=O)C1` (racemic) [Example 248], the IC50 was 226 nM.
Consider `O=C(/C=C/c1ccc(Cl)c(Cl)c1)N1CCC(=O)N(CCCCN2CCC(CO)CC2)CC1` [Example 422], for which the IC50 stood at 70 nM.
With `C[C@@H]1CN(CC(O)CN2CCN(C(=O)/C=C/c3ccc(Cl)c(Cl)c3)CCC2=O)CC[C@H]1O` (mixture of isomers) [Example 316, (rac)-1-[(E)-3-(3,4-Dichloro-phenyl)-acryloyl]-4-[2-hydroxy-3-(trans-4-hydroxy-3-methyl-piperidin-1-yl)-propyl]-[1,4]diazepan-5-one], the IC50 was 755 nM.
Next, `O=C(C=Cc1ccc(Cl)c(Cl)c1)N1CCC(=O)N(CCCCN2CCC(F)C(O)C2)CC1` (mixture of isomers) [Example 429, (rac,trans)-1-[(E)-3-(3,4-Dichloro-phenyl)-acryloyl]-4-[4-(4-fluoro-3-hydroxy-piperidin-1-yl)-butyl]-[1,4]diazepan-5-one]: 86 nM; `O=C(/C=C/c1ccc(Cl)c(Cl)c1)N1CCC(=O)N(CCCN2CCC3(CC3)C(O)C2)CC1` (stereo not shown) [Example 262]: 4 nM.
For the compound `O=C(/C=C/c1ccc(Cl)c(Cl)c1)N1CCC(=O)N(CCN[C@H]2CC[C@H](O)CC2)CC1` [Example 106, trans-1-[(E)-3-(3,4-Dichloro-phenyl)-acryloyl]-4-[2-(4-hydroxy-cyclohexylamino)-ethyl]-[1,4]diazepan-5-one], the IC50 came out at 523 nM.
As for `O=C(/C=C/c1ccc(Cl)c(Cl)c1)N1CCC(=O)N(CCCN2CCC[C@H](O)C2)CC1` [Example 92, (S)-1-[(E)-3-(3,4-Dichloro-phenyl)-acryloyl]-4-[3-(3-hydroxy-piperidin-1-yl)-propyl]-[1,4]diazepan-5-one], the IC50 was 189 nM.
Then `CC1CCCCN1CC(O)CCN1CCN(C(=O)/C=C/c2ccc(Cl)c(Cl)c2)CCC1=O` (racemic) [Example 375], with 274 nM; and `O=C(/C=C/c1ccc(Cl)c(Cl)c1)N1CCC(=O)N(CCCN2CCC(F)CC2)CC1` [Example 74, 1-[(E)-3-(3,4-Dichloro-phenyl)-acryloyl]-4-[3-(4-fluoro-piperidin-1-yl)-propyl]-[1,4]diazepan-5-one], with 175 nM.
As for `C[C@]1(CO)CCN(CCCN2CCN(C(=O)/C=C/c3ccc(Cl)c(Cl)c3)CCC2=O)C[C@H]1O` (racemic) [Example 270, (rac,cis)-1-[(E)-3-(3,4-Dichloro-phenyl)-acryloyl]-4-[3-(3-hydroxy-4-hydroxymethyl-4-methyl-piperidin-1-yl)-propyl]-[1,4]diazepan-5-one], the 50% inhibitory concentration (IC50) was 10 nM.
As to `O=C(/C=C/c1ccc(Cl)c(Cl)c1)N1CCC(=O)N(CC(O)CN2CCC(O)CC2)CC1` (stereo not shown) [Example 285], the half-inhibitory concentration (IC50) was 644 nM.
On to “4-[3-(4-Methyl-4-hydroxy-piperidin-1-yl)-propyl]-1-[(E)-3-(3,4-dichloro-phenyl)-acryloyl]-[1,4]diazepan-5-one [Example 76]”, for which the IC50 stood at 219 nM.
Regarding `O=C(/C=C/c1ccc(F)c(Cl)c1)N1CCC(=O)N(CCCCN2CCN(C3CC3)CC2)CC1` [Example 397], the IC50 was 944 nM.
With `CC(C)N1CCN(CCCCN2CCN(C(=O)/C=C/c3ccc(Cl)c(Cl)c3)CCC2=O)CC1` [Example 436], the IC50 worked out at 746 nM.
For `CC1(CO)CCCN1CC(O)CCN1CCN(C(=O)/C=C/c2ccc(Cl)c(Cl)c2)CCC1=O` (racemic) [Example 381], the IC50 is 236 nM.
For the compound `CN(CCN1CCN(C(=O)/C=C/c2ccc(Cl)c(Cl)c2)CCC1=O)C1CCOCC1` [Example 134, 1-[(E)-3-(3,4-Dichloro-phenyl)-acryloyl]-4-{3-[methyl-(tetrahydro-pyran-4-yl)-amino]-ethyl}-[1,4]diazepan-5-one], the IC50 was found to be 600 nM.
As to `O=C(/C=C/c1ccc(Cl)c(Cl)c1)N1CCC(=O)N(CCC(O)CN2CCCC(CO)C2)CC1` (racemic) [Example 378], the IC50 was found to be 1240 nM.
For `O=C(/C=C/c1ccc(Cl)c(Cl)c1)N1CCC(=O)N(CCCCN2CCC3(CCCO3)CC2)CC1` (racemic) [Example 467], the 50% inhibitory concentration (IC50) came out at 1160 nM.
For `CC1CCC(NCCN2CCN(C(=O)/C=C/c3ccc(Cl)c(Cl)c3)CCC2=O)CC1` (mixture of isomers) [Example 138, cis/trans-1-[(E)-3-(3,4-Dichloro-phenyl)-acryloyl]-4-{3-[(4-methyl-cyclohexyl)-amino]-ethyl}-[1,4]diazepan-5-one], the concentration for half-maximal inhibition (IC50) was 1260 nM.
As to `C[C@@]1(CO)CCN(CCCN2CCN(C(=O)/C=C/c3ccc(Cl)c(Cl)c3)CCC2=O)C[C@H]1O` (racemic) [Example 271, (rac,trans)-1-[(E)-3-(3,4-Dichloro-phenyl)-acryloyl]-4-[3-(3-hydroxy-4-hydroxymethyl-4-methyl-piperidin-1-yl)-propyl]-[1,4]diazepan-5-one], the 50% inhibitory concentration (IC50) turned out to be 55 nM.
Next, `O=C(/C=C/c1ccc(Cl)c(Cl)c1)N1CCC(=O)N(CCCN2CCSCC2)CC1` [Example 51, 1-[(E)-3-(3,4-Dichloro-phenyl)-acryloyl]-4-(3-thiomorpholin-4-yl-propyl)-[1,4]diazepan-5-one]: 46 nM; `O=C(/C=C/c1ccc(F)c(Cl)c1)N1CCC(=O)N(CCCCN2CCCCC2CO)CC1` (racemic) [Example 387]: 584 nM.
In the case of `CC1(C)CCN(CCCN2CCN(C(=O)/C=C/c3ccc(F)c(Cl)c3)CCC2=O)CC1O` (racemic) [Example 223], the half-maximal inhibitory concentration (IC50) turned out to be 13 nM.
Turning to `CC1CC(O)CN(CCCN2CCN(C(=O)C=Cc3ccc(F)c(Cl)c3)CCC2=O)C1` (mixture of isomers) [Example 224, (rac,cis)-1-[(E)-3-(3-Chloro-4-fluoro-phenyl)-acryloyl]-4-[3-(3-hydroxy-5-methyl-piperidin-1-yl)-propyl]-[1,4]diazepan-5-one], the IC50 came out at 14 nM.
For `CC1(CO)CCCCN1CC(O)CCN1CCN(C(=O)/C=C/c2ccc(Cl)c(Cl)c2)CCC1=O` (racemic) [Example 363], the IC50 is 73 nM.
